Test results: patent US20040162275A1, “Multivalently interactive molecular assembly, capturing agent, drug carrier, calcium chelating agent, and drug enhancer” (Nobuhiko Yui, priority 2002, published 2004)

Target: concanavalin A (ConA) (Canavalia ensiformis, UniProt P02866)
Test: Hemagglutination inhibition test, Mal-polyrotaxane conjugate and ConA (Example 11)
Assay type: cell-based
Conditions: rat erythrocyte, ConA at 4-fold minimum hemagglutinating concentration, maltose basis, FIG. 19
Protocol: Next, hemagglutination inhibition test was performed to evaluate the interaction between Mal-polyrotaxane conjugate and concanavalin A (ConA), then 20 μL of diluted Mal-polyrotaxane conjugate in saline and 20 μL of solution of ConA in saline were dispensed in a 96well plate (U-bottom), stirred, and then incubated at 37° C. for 30 minutes. Next, 40 μL of 2% (v/v) rat erytlirocyte was added to the plate, and the mixture was stirred and then incubated at 37° C. for 30 minutes. The precipitation of erythrocyte was monitored to determine hemagglutination, and the minimum concentration to inhibit hemagglutination was determined. The ConA concentration was set up at a 4-fold higher value than the minimum concentration of ConA at which hemagglutination occurs.
Relative MIC=(Min. inhibitory conc. of maltose)/(Min inhibitory conc. of maltose in the conjugate)

## OC[C@H]1O[C@H](O[C@H]2[C@H](O)[C@@H](O)C(O)O[C@@H]2CO)[C@H](O)[C@@H](O)[C@@H]1O (mixture of isomers) [Mal, maltose]
  minimum concentration to inhibit hemagglutination: 9.1 mM
